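Results reflect a 48-hour exposure of cells in 96-well plates to compound at five concentrations. TGI: concentration producing complete growth inhibition.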
Key:
Assay in all cases: NCI anticancer screen, dose series, 48 h
EKVX NSCLC = tested on: EKVX NSCLC
HCC-2998 colon = tested on: HCC-2998 colon
TK-10 renal = tested on: TK-10 renal
UACC-257 melanoma = tested on: UACC-257 melanoma
OVCAR-8 ovarian = tested on: OVCAR-8 ovarian
NCI-H522 lung = tested on: NCI-H522 lung
HT29 colon = tested on: HT29 colon
UACC-62 melanoma = tested on: UACC-62 melanoma
IGROV1 ovarian = tested on: IGROV1 ovarian
OVCAR-5 ovarian = tested on: OVCAR-5 ovarian
M14 melanoma = tested on: M14 melanoma
SW-620 colon = tested on: SW-620 colon
UO-31 renal = tested on: UO-31 renal
NCI-H23 lung = tested on: NCI-H23 lung
HCT-116 colon = tested on: HCT-116 colon
RPMI-8226 leukemia = tested on: RPMI-8226 leukemia
MDA-MB-231 breast = tested on: MDA-MB-231 breast
SF-295 CNS = tested on: SF-295 CNS
CCRF-CEM leukemia = tested on: CCRF-CEM leukemia
NCI-H460 lung = tested on: NCI-H460 lung
NCI/ADR-RES ovarian = tested on: NCI/ADR-RES ovarian
A498 renal = tested on: A498 renal
COLO 205 colon = tested on: COLO 205 colon
BT-549 breast = tested on: BT-549 breast
HOP-92 NSCLC = tested on: HOP-92 NSCLC
HCT-15 colon = tested on: HCT-15 colon
A549 NSCLC = tested on: A549 NSCLC
OVCAR-4 ovarian = tested on: OVCAR-4 ovarian
CAKI-1 renal = tested on: CAKI-1 renal
SNB-19 CNS = tested on: SNB-19 CNS
SK-MEL-2 melanoma = tested on: SK-MEL-2 melanoma
T-47D breast = tested on: T-47D breast
OVCAR-3 ovarian = tested on: OVCAR-3 ovarian
SK-OV-3 ovarian = tested on: SK-OV-3 ovarian
PC-3 prostate = tested on: PC-3 prostate
RXF 393 renal = tested on: RXF 393 renal
NCI-H226 lung = tested on: NCI-H226 lung
ACHN renal = tested on: ACHN renal
KM12 colon = tested on: KM12 colon
SK-MEL-5 melanoma = tested on: SK-MEL-5 melanoma
MOLT-4 leukemia = tested on: MOLT-4 leukemia
DU-145 prostate = tested on: DU-145 prostate
HOP-62 NSCLC = tested on: HOP-62 NSCLC
U251 CNS = tested on: U251 CNS
SNB-75 CNS = tested on: SNB-75 CNS
786-0 renal = tested on: 786-0 renal
SN12C renal = tested on: SN12C renal
HS 578T breast = tested on: HS 578T breast
SF-539 CNS = tested on: SF-539 CNS
SF-268 CNS = tested on: SF-268 CNS
HL-60(TB) leukemia = tested on: HL-60(TB) leukemia
MDA-MB-435 = tested on: MDA-MB-435
SK-MEL-28 melanoma = tested on: SK-MEL-28 melanoma
K-562 leukemia = tested on: K-562 leukemia
LOX IMVI melanoma = tested on: LOX IMVI melanoma
MALME-3M melanoma = tested on: MALME-3M melanoma

Measured: TGI

NNC(=O)CC(=O)Nc1ccc(S(=O)(=O)c2ccc(NC(=O)CC(=O)NN)cc2)cc1
not listed: LOX IMVI melanoma | MALME-3M melanoma
> 100 µM: all other assays above

Cc1oc2nc(N(C)C)nc(NN)c2c1C
not listed: SK-OV-3 ovarian | LOX IMVI melanoma | MALME-3M melanoma
> 100 µM: all other assays above

CC(ON1[C@](C)(c2ccccc2)CC[C@@]1(C)c1ccccc1)c1ccccc1 (stereo not given in full)
50.3 µM: NCI-H522 lung
87.3 µM: T-47D breast
54.6 µM: SNB-75 CNS
46 µM: RXF 393 renal
50.5 µM: SK-MEL-2 melanoma
58.2 µM: RPMI-8226 leukemia
52.5 µM: CCRF-CEM leukemia
42.2 µM: BT-549 breast
77.9 µM: EKVX NSCLC
93 µM: SNB-19 CNS
52.6 µM: HCC-2998 colon
61.5 µM: HL-60(TB) leukemia
46.1 µM: MOLT-4 leukemia
not listed: UACC-62 melanoma | A498 renal | ACHN renal
> 100 µM: all other assays above

Reference: PubChem BioAssay (NCI)
